According to patent US9073919B2, “Pyrazolo pyridine derivatives as NADPH oxidase inhibitors” (GENKYOTEX SA, priority 2007, dated 2015):

How the values were obtained:
Type in all cases: cell-based, human
NOX [1] = experiment: Amplex Red, extracellular hydrogen peroxide, DMSO-differentiated HL60 cells; settings: DPI 10 μM, % of the activity in control cells, 'usually'
Experimental: Human acute myeloid leukemia cell line HL-60 was cultured in RPMI 1640 (Invitrogen) supplemented with 10% heat-inactivated calf serum, 2 mM glutamine, 100 U/mL penicillin (Sigma), and 100 μg streptomycin (Sigma) at 37° C. under a humidified atmosphere of 5% CO2. HL60 differentiation to the neutrophil phenotype was triggered by adding Me2SO (final concentration 1.25% v/v for 6 days) to the culture medium.
(§1) Extracellular hydrogen peroxide was measured using Amplex UltraRed (Molecular Probes). Cells were trypsinized (1× Trypsin-EDTA), collected by centrifugation, and resuspended in HBSS supplemented with 1% glucose. Cells were seeded into black 96-well plates at a density of 50,000 cells in 200 μl testing buffer (HBSS 1% glucose containing 0.005 U/mL horseradish peroxidase (Roche) and 50 μM Amplex Red in the presence or absence of compounds according to the invention. As a control, DPI was included at a final concentration of 10 μM The plates were placed in the fluorescent Optima Fluorescent plate reader and kept at 37° C. during 20 min. Fluorescence was measured for […] with excitation and emission wavelengths of 544 nm and 590 nm respectively. NOX activities were expressed as % of the activity in control cells. Residual activity of DPI-treated cells was usually <10%.

NOX [2] = experiment: Nitroblue tetrazolium (NBT) superoxide test in cells; settings: DPI 10 μM, % of the activity in control cells, 'usually'
Experimental: Human microglia cell line (HMC3, human microglia clone 3) (Janabi et al, 1995, Neurosci Lett 195:105) were cultured in MEM (Eagle's minimum essential medium) containing 10% FBS with 50 U/ml penicillin G sodium 50 μg/ml streptomycin sulfate, and incubated at 37° C. for 24 hours. IFN-γ (human IFN-γ, Roche. 11 040 596 001) was added to the culture medium for a final concentration of 10 ng/ml 24 h, before detection of O2^− formation. […]
Intracellular and extracellular superoxide was measured by a colorimetric technique using a quantitative nitroblue tetrazolium (NBT) test. SOD-inhibitable conversion of NBT to formazan, a fine blue precipitate, in the presence of superoxide anion was measured using Fluostar Optima spectrometer (BMG labtech). […] The absorption was measured at 630 nm. For calculation, the absorbance at 630 nm was normalized for each individual well. […] NOX activities were expressed as % of the activity in control cells. […]

NOX [3] = experiment: Chemiluminescence (luminol) ROS measurement in cells; settings: % of the activity in control cells, 'usually'
Experimental: as §1
ROS was measured using the chemiluminescent probe luminol. Cells were cultured and plated as for Amplex Red except that the Amplex Red agent was replaced by 10 μg/mL luminol (Sigma 09235). Light emission was recorded continuously at 37° C. for 60 minutes using the luminescence function of the FluoStar Optima fluorescent plate reader. The mean of the four blank values was subtracted from each corrected value for each time point. NOX activities were expressed as % of the activity in control cells. […]

NOX [4] = experiment: H2DCF-DA fluorescence in TGF-β stimulated HUVEC; settings: % of the activity in control cells, 'usually'
Experimental: HUVEC are cultured in endothelial basal medium supplemented with hydrocortisone (1 μg/mL, CalbioChem), bovine brain extract (12 μg/mL), gentamicin (50 μg/mL, CalbioChem), amphotericin B (50 ng/mL, CalBioChem EGF (10 ng/mL, and 10% FCS until the fourth passage. When the fifth passage was started, cells were cultured with a lower concentration of FCS (2%) in the absence of EGF, if not indicated otherwise. All experiments were done with cells of the fifth passage. The cells were incubated with OxLDL (oxidized low-density lipoprotein) or its buffer as control for 24 h, before detection of O2^− formation.
HUVEC were plated on coverslips and made quiescent overnight in 0.5% BSA before stimulation with TGF-β. Cells were loaded for 10 minutes with 5 μM CM-H2DCFDA in phenol-red-free medium in the dark and then treated with TGF-β (R&D Systems) in the presence or absence of compounds according to the invention. Cells were then visualized by immunofluorescence microscopy after fixation and staining of the nuclei with DAPI or examined live using confocal microscopy. DCF fluorescence was visualized at an excitation wavelength of 488 nm and emission at 515 to 540 nm. […] For calculation, the absorbance at […] was normalized to absorbance at […] for each individual well. […] NOX activities were expressed as % of the activity in control cells. […]

Measured: Residual activity of DPI-treated cells

c1ccc([I+]c2ccccc2)cc1 [DPI, Diphenyl-iodonium]
< 10%: all assays above
